Test results: ChEMBL document CHEMBL3886568, “Pyridine derivatives as agonists of the CB2 receptor” (2016)

Molecular target: Cannabinoid receptor 1 (Homo sapiens, UniProt P21554)
Assay: cAMP Assay: CHO cells expressing human CB1 or CB2 receptors are seeded 17-24 hours prior to the experiment 50.000 cells per well in a black 96 well plate with flat clear bottom (Corning Costar #3904) in DMEM (Invitrogen No. 31331), 1×HT supplement, with 10% fetal calf serum and incubated at 5% CO2 and 37° C. in a humidified incubator. The growth medium was exchanged with Krebs Ringer Bicarbonate buffer with 1 mM IBMX and incubated at 30° C. for 30 min Compounds were added to a final assay volume of 100 ul and incubated for 30 min at 30° C. Using the cAMP-Nano-TRF detection kit the assay (Roche Diagnostics) was stopped by the addition of 50 ul lysis reagent (Tris, NaCl, 1.5% Triton X100, 2.5% NP40, 10% NaN3) and 50 ul detection solutions (20 uM mAb Alexa700-cAMP 1:1, and 48 uM Ruthenium-2-AHA-cAMP) and shaken for 2 h at room temperature. The time-resolved energy transfer is measured by a TRF reader (Evotec Technologies GmbH), equipped with a ND:YAG laser as excitation source. The plate is measured twice with the excitation at 355 nm and at the emission with a delay of 100 ns and a gate of 100 ns, total exposure time 10 s at 730 (bandwidth 30 nm) or 645 nm (bandwidth 75 nm), respectively. The FRET signal is calculated.
Assay type: functional, cell-based

Sequence of Cannabinoid receptor 1 (P21554 whole entry): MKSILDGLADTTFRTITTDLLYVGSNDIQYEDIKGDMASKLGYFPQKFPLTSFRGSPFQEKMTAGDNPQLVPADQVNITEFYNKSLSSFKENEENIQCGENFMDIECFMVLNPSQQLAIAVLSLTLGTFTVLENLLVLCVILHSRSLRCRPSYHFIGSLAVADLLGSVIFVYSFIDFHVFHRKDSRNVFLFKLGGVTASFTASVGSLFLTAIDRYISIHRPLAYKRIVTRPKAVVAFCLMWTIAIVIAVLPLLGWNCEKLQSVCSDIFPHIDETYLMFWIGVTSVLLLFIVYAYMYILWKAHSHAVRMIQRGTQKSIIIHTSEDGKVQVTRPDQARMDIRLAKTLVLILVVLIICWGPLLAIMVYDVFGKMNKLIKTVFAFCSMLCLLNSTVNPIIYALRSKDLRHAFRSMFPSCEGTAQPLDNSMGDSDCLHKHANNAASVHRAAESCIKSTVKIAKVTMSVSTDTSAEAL

O=C(N[C@@H](CC1CC1)C(=O)NC1CCC(O)C1)c1ccc(C2CC2)c(OCC2CC2)n1 (stereo partly specified) was tested. Which EC50 did it give?
The EC50 was greater than 10 µM.
